For 22 compounds, Ki results are on record in patent US8841313B2, “CCR2 antagonists and uses thereof” (Boehringer Ingelheim International GmbH, priority 2010, dated 2014).

Structures are written as SMILES.

The assay deals with T1, CCR2 (Homo sapiens, UniProt P41597).
T1 construct: Membranes were prepared from THP-1 cells; endogenous in cells; host or cells: THP-1 (human acute monocytic leukaemia cells), membrane preparation
In words: CCR2 receptor membrane binding assay ([125I]MCP-1, THP-1 membranes, SPA beads). The note with it: THP-1 cell membranes, [125I]MCP-1 displacement, bound radioactivity after 8 h; read-out: hKi. The method, then: The above exemplary substances have been tested for binding to CCR2 using a binding assay as outlined herein below:
THP-1 cells (human acute monocytic leukaemia cells) were cultured under standardized conditions at 37° C. and 5% CO2 in a humidified incubator. THP-1 cells were cultivated in RPMI 1640 medium (Gibco 21875) containing 1% MEM-NEAA (Gibso 11140) 2 mM L-glutamine, 1.5 g/L sodium bicarbonate, 4.5 g/L glucose, 10 mM HEPES and 1.0 mM sodium pyruvate, 90%; 10% fetal calf serum (FCS Gibco 10500-064).
Membranes were prepared from THP-1 cells. THP-1 cells were centrifuged at 300×g at 4° C. for 10 min. The cell pellet was resuspended in Phosphate Buffer Saline (PBS, including 10 μM Pefabloc and a protease inhibitor mix ‘complete’, Boehringer Mannheim (1 tablet/50 ml)), to a concentration of […]. The membrane preparation was performed by disrupting the cells by nitrogen […] (at 50 bar, for 1 h) in a “Nitrogen Bombe” (Parr Instrument). Cell debris was removed by centrifugation (800×g at 4° C., 1 min). The supernatant was centrifuged at 80000×g, 4° C. for 30 min to sediment the cell membranes. Usually 50 mg of protein (Bradford assay) were yielded from 1×10E9 cells. The membranes were resuspended in 25 mM HEPES, 25 mM MgCl2, 1 mM CaCl2, 10% Glycerine for storage in aliquots at −80° C. in 25 mM HEPES, 25 mM MgCl2, 1 mM CaCl2, 10% Glycerine and stored at −80° C.
Perkin Elmer NEX 332 Jod 125 MCP-1, Stock: 2200 Ci/mmol solved in 2000 μl assay buffer, stored at −20° C. THP-1 membrane were adjusted with 25 mM HEPES, pH 7.2; 5 mM MgCl2; 0.5 mM CaCl2; 0.2% BSA assay buffer to a concentration of 2.5 μg/15 μl. Amersham Biosciences PVT-WGA Beads (RPNQ0001) were adjusted with assay buffer to a concentration of 0.24 mg/30 μl. For preparation of the membrane-bead-suspension membranes and beads were incubated for 30 min at RT under rotation (60 rpm) with a ratio of 1:2. Test compounds dissolved in 100% DMSO to a concentration of 10 mM and are further diluted with 100% DMSO to 1 mM. All additional compound dilutions were obtained with assay buffer, final 1% DMSO. Compounds, membrane-bead-suspension and [125I]MCP-1 (ca. 25000 cpm/10 μl) were incubated. Bound radioactivity was determined by scintillation counter after 8 h. Determination of affinity of test compounds (dissociation constant hKi) is calculated by iterative fitting of experimental data using the “easy sys” program, which is based on law of mass action (Schittkowski K. (1994), Numerische Mathematik, Vol. 68, 129-142).

T1 sequence (P41597 whole entry): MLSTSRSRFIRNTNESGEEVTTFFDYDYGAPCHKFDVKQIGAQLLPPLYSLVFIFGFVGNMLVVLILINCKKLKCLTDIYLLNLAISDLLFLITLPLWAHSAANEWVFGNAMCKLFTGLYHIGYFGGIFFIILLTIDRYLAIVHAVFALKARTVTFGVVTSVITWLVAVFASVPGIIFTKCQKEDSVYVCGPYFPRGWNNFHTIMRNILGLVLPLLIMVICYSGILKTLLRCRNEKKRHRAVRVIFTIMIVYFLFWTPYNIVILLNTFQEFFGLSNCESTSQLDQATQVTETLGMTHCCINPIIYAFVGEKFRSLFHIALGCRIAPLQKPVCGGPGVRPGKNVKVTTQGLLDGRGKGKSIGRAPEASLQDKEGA

As to `COC1COCCC1NC1CCN(C(=O)c2ncnc(Oc3cccc(C(F)(F)F)c3)c2C)CC1` (stereo not shown) [Example 1], the Ki was found to be 278 nM.
For the compound `COC1COCCC1NC1CCN(C(=O)c2ncnc(OCc3ccc(C(C)(C)C)cc3)c2C)CC1` (stereo not shown) [Example 2], the Ki was 21 nM.
In the case of `COC1COCCC1NC1CCN(C(=O)c2ncnc(OCc3ccc(Cl)c(Cl)c3)c2C)CC1` (stereo not shown) [Example 2a], the Ki worked out at 8 nM.
For the compound `COC1COCCC1NC1CCN(C(=O)c2ncnc(OCc3ccc(C(F)(F)F)c(Cl)c3)c2C)CC1` (stereo not shown) [Example 2b], the Ki came out at 8 nM.
In the case of `COC1COCCC1NC1CCN(C(=O)c2ncnc(OCc3cc(Cl)cc(Cl)c3)c2C)CC1` (stereo not shown) [Example 2c], the Ki stood at 18 nM.
As for `CO[C@@H]1COCC[C@@H]1NC1CCN(C(=O)c2ncnc(OCc3ccc(Cl)c(Cl)c3)c2C)CC1` [Example 2d], the Ki amounted to 12 nM.
As for `CO[C@H]1COCC[C@H]1NC1CCN(C(=O)c2ncnc(OC[C@H]3CCC[C@@H](c4ccc(OC(F)(F)F)cc4)O3)c2C)CC1` [Example 3], the Ki was determined as 45 nM.
In the case of `CO[C@@H]1COCC[C@@H]1NC1CCN(C(=O)c2nccc(OCc3ccc(C(C)(C)C)cc3)c2C)CC1` [Example 3a], the Ki turned out to be 23 nM.
Under `CO[C@H]1COCC[C@H]1NC1CCN(C(=O)c2nccc(OCc3ccc(C(C)(C)C)cc3)c2C)CC1` [Example 3b] stands 108 nM.
Under `COc1nc(OCc2ccc(C(F)(F)F)cc2)c(C)c(C(=O)N2CCC(N[C@@H]3CCOC[C@@H]3OC)CC2)n1` [Example 3c] stands 14 nM; under `COc1nc(OCc2ccc(C(F)(F)F)cc2)c(C)c(C(=O)N2CCC(N[C@H]3CCOC[C@H]3OC)CC2)n1` [Example 3d], 4 nM; under `CO[C@H]1COCC[C@H]1NC1CCN(C(=O)c2nc(C(F)(F)F)nc(OCc3ccc(C(C)(C)C)cc3)c2C)CC1` [Example 3e], 9 nM.
On to `CO[C@@H]1COCC[C@@H]1NC1CCN(C(=O)c2nc(C(F)(F)F)nc(OCc3ccc(C(C)(C)C)cc3)c2C)CC1` [Example 3f], for which the Ki was 7 nM.
As for `COc1nc(OCc2ccc(C(C)(C)C)cc2)c(C)c(C(=O)N2CCC(N[C@H]3CCOC[C@H]3OC)CC2)n1` [Example 3g], the Ki came to 2 nM.
On to `COc1nc(OCc2cccc(C(F)(F)F)c2)c(C)c(C(=O)N2CCC(N[C@H]3CCOC[C@H]3OC)CC2)n1` [Example 3h], for which the Ki was found to be 18 nM.
As for `COc1nc(OCc2ccc(C(C)(C)C)cc2)c(C)c(C(=O)N2CCC(N[C@@H]3CCOC[C@@H]3OC)CC2)n1` [Example 3i], the figure is 4 nM.
On to `COc1nc(OCc2ccc(C(F)(F)F)c(Cl)c2)c(C)c(C(=O)N2CCC(N[C@H]3CCOC[C@H]3OC)CC2)n1` [Example 3j], for which the Ki is 3 nM.
Under `COc1nc(OCc2ccc(C(F)(F)F)c(Cl)c2)c(C)c(C(=O)N2CCC(N[C@@H]3CCOC[C@@H]3OC)CC2)n1` [Example 3k] stands 8 nM; under `COc1nc(OCc2ccc(Cl)c(F)c2)c(C)c(C(=O)N2CCC(N[C@H]3CCOC[C@H]3OC)CC2)n1` [Example 3l], 8 nM.
With `COc1nc(OCc2ccc(Cl)c(Cl)c2)c(C)c(C(=O)N2CCC(N[C@H]3CCOC[C@H]3OC)CC2)n1` [Example 3m], the Ki came out at 10 nM.
Regarding `CO[C@@H]1COCC[C@@H]1NC1CCN(C(=O)c2nc(C(F)(F)F)nc(OCc3ccc(Cl)c(Cl)c3)c2C)CC1` [Example 3n], the Ki was determined as 16 nM.
In the case of `CO[C@@H]1COCC[C@@H]1NC1CCN(C(=O)c2nc(C(F)(F)F)nc(OCc3cc(Cl)cc(Cl)c3)c2C)CC1` [Example 3o], the Ki turned out to be 18 nM.
